The results in this text go back to article PMC5187391, “Structural mechanism for the arginine sensing and regulation of CASTOR1 in the mTORC1 signaling pathway” (Cell Discovery, 2016).

Data set [1] deals with T1, CASTOR1 (Homo sapiens, UniProt Q8WTX7, S111A).
T1 construct: full-length human CASTOR1, N-terminal 6×His-tag
T1 sequence (Q8WTX7 1-329 S111A): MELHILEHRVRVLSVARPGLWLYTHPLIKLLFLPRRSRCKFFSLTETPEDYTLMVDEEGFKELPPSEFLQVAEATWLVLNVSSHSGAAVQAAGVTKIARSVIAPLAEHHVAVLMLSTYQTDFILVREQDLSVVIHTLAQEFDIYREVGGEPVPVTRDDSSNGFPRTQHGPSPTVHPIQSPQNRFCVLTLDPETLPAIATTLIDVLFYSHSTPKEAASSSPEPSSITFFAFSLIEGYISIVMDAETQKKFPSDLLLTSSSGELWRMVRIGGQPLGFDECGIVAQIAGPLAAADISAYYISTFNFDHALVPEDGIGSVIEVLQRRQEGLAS
The data set can be described thus: ITC. Type of data set: binding.

Data set [2] has as its target T2, CASTOR1 (Homo sapiens, UniProt Q8WTX7).
T2 construct: full-length human CASTOR1, N-terminal 6×His-tag (homodimer)
T2 sequence (Q8WTX7 1-329): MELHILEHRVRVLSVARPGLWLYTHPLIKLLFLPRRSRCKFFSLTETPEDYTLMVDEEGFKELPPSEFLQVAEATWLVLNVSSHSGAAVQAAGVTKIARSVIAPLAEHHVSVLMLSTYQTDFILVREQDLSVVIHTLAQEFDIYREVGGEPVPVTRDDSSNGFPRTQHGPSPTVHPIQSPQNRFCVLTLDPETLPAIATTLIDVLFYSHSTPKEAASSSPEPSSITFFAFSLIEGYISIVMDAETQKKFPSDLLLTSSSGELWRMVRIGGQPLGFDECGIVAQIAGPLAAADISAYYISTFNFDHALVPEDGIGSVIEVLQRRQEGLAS
The data set can be described thus: ITC. The format is binding.

Data set [3] has as its target T3, Full-length human Mios with an N-terminal GST tag (human, UniProt Q9NXC5 1-875).
T3 construct: Mios, human, full length, in pGEX4T-1; the methods describe only GST-Mios for the Ni2+-NTA pull-down; also called GST-Mios; purified Mios protein; not shown: GST, N-terminal, kept
T3 sequence (looked up): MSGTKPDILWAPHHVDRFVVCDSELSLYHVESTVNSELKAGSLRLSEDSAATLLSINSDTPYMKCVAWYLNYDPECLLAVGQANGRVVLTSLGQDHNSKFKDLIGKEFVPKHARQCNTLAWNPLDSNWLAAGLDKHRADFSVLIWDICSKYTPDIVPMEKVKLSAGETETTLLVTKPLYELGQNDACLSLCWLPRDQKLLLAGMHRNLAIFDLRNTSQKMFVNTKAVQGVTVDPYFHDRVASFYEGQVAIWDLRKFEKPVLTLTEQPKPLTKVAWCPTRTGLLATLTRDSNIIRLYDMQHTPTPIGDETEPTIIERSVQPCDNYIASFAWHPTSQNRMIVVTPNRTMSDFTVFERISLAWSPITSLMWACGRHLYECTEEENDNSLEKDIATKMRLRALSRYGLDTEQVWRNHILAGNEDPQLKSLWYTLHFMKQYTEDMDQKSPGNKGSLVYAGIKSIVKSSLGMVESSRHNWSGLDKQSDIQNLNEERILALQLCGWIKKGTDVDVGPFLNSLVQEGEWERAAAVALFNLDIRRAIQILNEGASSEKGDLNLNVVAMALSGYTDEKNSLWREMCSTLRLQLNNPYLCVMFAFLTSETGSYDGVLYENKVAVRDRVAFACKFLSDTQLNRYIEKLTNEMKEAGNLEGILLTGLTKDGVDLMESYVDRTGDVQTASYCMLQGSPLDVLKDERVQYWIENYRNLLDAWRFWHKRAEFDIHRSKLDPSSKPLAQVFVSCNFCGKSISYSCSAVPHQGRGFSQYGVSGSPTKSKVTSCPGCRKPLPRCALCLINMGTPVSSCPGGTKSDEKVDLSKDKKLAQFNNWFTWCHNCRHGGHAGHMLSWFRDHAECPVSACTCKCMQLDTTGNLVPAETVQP
The data set can be described thus: pull-down; Ni2+-NTA column pull-down: His-CASTOR1 pre-immobilised on the Ni2+-NTA column, GST-Mios (or another purified GATOR2 subunit) added at 4 °C; wash 25 mM Tris, pH 8.0, 300 mM NaCl, 20 mM imidazole; elution with 500 mM imidazole; SDS-PAGE and Coomassie Blue staining. The following applies: both partners purified.

Data set [4] concerns the molecule itself. Kind of data set: SEC-MALS; 25 °C; about 400 μg protein injected per run; 15 mM Tris-HCl, pH 8.0, 150 mM NaCl, 2 mM DTT; WTC-015S5 column. (In general: Size exclusion chromatography separates by hydrodynamic size, large species first.)

In the case of `N=C(N)NCCC[C@H](N)C(=O)O` [arginine], the Kd was determined as 9.68 µM at CASTOR1 [1] and 2230 nM at CASTOR1 [2].

B1: Full-length human CASTOR1, wild type, N-terminal 6xHis-tag (natural protein, UniProt Q8WTX7 1-329, looked up)
chain: MELHILEHRVRVLSVARPGLWLYTHPLIKLLFLPRRSRCKFFSLTETPEDYTLMVDEEGFKELPPSEFLQVAEATWLVLNVSSHSGAAVQAAGVTKIARSVIAPLAEHHVSVLMLSTYQTDFILVREQDLSVVIHTLAQEFDIYREVGGEPVPVTRDDSSNGFPRTQHGPSPTVHPIQSPQNRFCVLTLDPETLPAIATTLIDVLFYSHSTPKEAASSSPEPSSITFFAFSLIEGYISIVMDAETQKKFPSDLLLTSSSGELWRMVRIGGQPLGFDECGIVAQIAGPLAAADISAYYISTFNFDHALVPEDGIGSVIEVLQRRQEGLAS
notes: CASTOR1, human, full length (residues 1-329 by the domain limits printed in the results); cDNA chemically synthesized, in pET28a; Dimer in the crystal and by SEC-MALS; also called WT CASTOR1; His-CASTOR1; source: E. coli BL21(DE3), purified (Ni2+-NTA, Superdex 200 gel filtration); not shown: His6, N-terminal, kept
With B1, the binding result in data set [3] was “binds”. For the same molecule, the “stoichiometry N” value in data set [4] worked out at 2.

As a reminder, the Kd is the concentration at which binding is half-saturated. The term stoichiometry N denotes the number of molecules, sites or subunits per partner or assembly.
